# Source: patent publication US11591355B2 (Peloton Therapeutics, Inc., priority 2017, dated 2023)
# Assays:
# [1] = molecular target: T1, CD73 on U138 human neuroglioma cells (Homo sapiens, UniProt P21589); assay: CD73 Cell-Based Assay; conditions: U138 cells, AMP substrate, 2 hours at 37° C., inorganic phosphate by malachite green
# T1 construct: U138 cells were obtained from ATCC and cultured in DMEM with 10% FBS; host or cells: U138 human neuroglioma cells
# T1 sequence (P21589 27-549): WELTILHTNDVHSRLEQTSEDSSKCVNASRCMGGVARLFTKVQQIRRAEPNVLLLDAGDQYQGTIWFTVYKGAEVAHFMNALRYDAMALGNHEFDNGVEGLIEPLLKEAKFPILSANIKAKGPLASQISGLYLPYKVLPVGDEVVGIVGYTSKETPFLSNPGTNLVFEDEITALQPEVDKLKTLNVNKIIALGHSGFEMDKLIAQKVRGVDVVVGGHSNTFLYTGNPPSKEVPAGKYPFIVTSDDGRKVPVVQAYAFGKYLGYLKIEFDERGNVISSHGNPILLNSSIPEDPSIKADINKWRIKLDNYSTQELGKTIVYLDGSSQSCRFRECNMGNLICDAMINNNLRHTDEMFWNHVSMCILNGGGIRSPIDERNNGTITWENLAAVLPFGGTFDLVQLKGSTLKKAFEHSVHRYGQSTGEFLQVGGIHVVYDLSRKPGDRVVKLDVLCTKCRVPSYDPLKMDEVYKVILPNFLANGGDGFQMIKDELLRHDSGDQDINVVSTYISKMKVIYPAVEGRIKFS
# Method in brief: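 Whole U138 cells washed free of phosphate were incubated with 200 μM AMP (mixture concentration before equal-volume addition) plus compound in HEPES-buffered saline, pH 7.4, for 2 h at 37 °C, 5% CO2. Adenosine-forming activity read as inorganic phosphate released into supernatant by malachite green.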
# [2] = molecular target: T2, Human CD73 (Homo sapiens, UniProt P21589); assay: CD73 Enzyme Assay; type: biochemical; conditions: 0.25 nM hCD73, 25 μM AMP, kinetic read at 360 nm; read-out: CD73 Enzyme Assay IC50
# T2 construct: purchased R&D Systems; host or cells: CHO cells
# T2 sequence (P21589 27-549): T1 sequence (P21589 27-549)
Compound,IC50 [1],IC50 [2]
"O=P(O)(O)COC[C@H]1O[C@@H](n2ccc3c(NC4CCC(F)(F)C4)nc(Cl)nc32)[C@H](O)[C@@H]1O (stereo partly drawn) [Compound 101, [(2R,3S,4R,5R)-5-[2-chloro-4-[(3,3-difluoro-cyclopentyl)amino]-pyrrolo[2,3-d]-pyrimidin-7-yl]-3,4-dihydroxy-tetrahydro-furan-2-yl]methoxy-methylphosphonic acid]",< 10 nM,< 10 nM
"O=P(O)(O)COC[C@H]1O[C@@H](n2ccc3c(NC4CC5CC5C4)nc(Cl)nc32)[C@H](O)[C@@H]1O (stereo partly drawn) [Compound 102, [(2R,3S,4R,5R)-5-[4-(3-bicyclo[3.1.0]-hexanylamino)-2-chloro-pyrrolo[2,3-d]-pyrimidin-7-yl]-3,4-dihydroxy-tetrahydro-furan-2-yl]methoxy-methylphosphonic acid]",< 10 nM,< 10 nM
"O=P(O)(O)COC[C@H]1O[C@@H](n2ccc3c(N4CC5CCCC5C4)nc(Cl)nc32)[C@H](O)[C@@H]1O (stereo partly drawn) [Compound 103, [(2R,3S,4R,5R)-5-[4-(3,3a,4,5,6,6a-hexa-hydro-1H-cyclopenta-[c]pyrrol-2-yl)-2-chloro-pyrrolo[2,3-d]-pyrimidin-7-yl]-3,4-dihydroxy-tetrahydro-furan-2-yl]methoxy-methylphosphonic acid]",< 10 nM,< 10 nM
C[C@H](c1ccccc1)N(C)c1nc(Cl)nc2c1ncn2[C@@H]1O[C@H](COCP(=O)(O)O)[C@@H](O)[C@H]1O [Compound 104],< 10 nM,10 to 100 nM
"O=P(O)(O)COC[C@H]1O[C@@H](n2ccc3c(N4CC5CC5C4)nc(Cl)nc32)[C@H](O)[C@@H]1O (stereo partly drawn) [Compound 105, [(2R,3S,4R,5R)-5-[4-(3-azabicyclo[3.1.0]-hexan-3-yl)-2-chloro-pyrrolo[2,3-d]-pyrimidin-7-yl]-3,4-dihydroxy-tetrahydro-furan-2-yl]methoxy-methylphosphonic acid]",< 10 nM,< 10 nM
"C[C@H](Nc1nc(Cl)nc2c1ccn2[C@@H]1O[C@H](COCP(=O)(O)O)[C@@H](O)[C@H]1O)c1ccc(C(F)(F)F)cc1 [Compound 106, [(2R,3S,4R,5R)-5-[2-chloro-4-[[(1S)-1-[4-(trifluoromethyl)-phenyl]ethyl]amino]-pyrrolo[2,3-d]-pyrimidin-7-yl]-3,4-dihydroxy-tetrahydro-furan-2-yl]methoxy-methylphosphonic acid]",< 10 nM,< 10 nM
"CN(C)c1nc(C#N)nc2c1ccn2[C@@H]1O[C@H](COCP(=O)(O)O)[C@@H](O)[C@H]1O [Compound 107, [(2R,3S,4R,5R)-5-[2-cyano-4-(dimethyl-amino)pyrrolo[2,3-d]-pyrimidin-7-yl]-3,4-dihydroxy-tetrahydro-furan-2-yl]methoxy-methylphosphonic acid]",10 to 100 nM,10 to 100 nM
"CCNc1nc(C#N)nc2c1ccn2[C@@H]1O[C@H](COCP(=O)(O)O)[C@@H](O)[C@H]1O [Compound 108, [(2R,3S,4R,5R)-5-[2-cyano-4-(ethylamino)-pyrrolo[2,3-d]-pyrimidin-7-yl]-3,4-dihydroxy-tetrahydro-furan-2-yl]methoxy-methylphosphonic acid]",10 to 100 nM,10 to 100 nM
"O=P(O)(O)COC[C@H]1O[C@@H](n2ccc3c(NC4CCC4)nc(Cl)nc32)[C@H](O)[C@@H]1O [Compound 109, [(2R,3S,4R,5R)-5-[2-chloro-4-(cyclobutyl-amino)pyrrolo[2,3-d]-pyrimidin-7-yl]-3,4-dihydroxy-tetrahydro-furan-2-yl]methoxy-methylphosphonic acid]",< 10 nM,< 10 nM
"N#Cc1nc(NC2CCC2)c2ccn([C@@H]3O[C@H](COCP(=O)(O)O)[C@@H](O)[C@H]3O)c2n1 [Compound 110, [(2R,3S,4R,5R)-5-[2-cyano-4-(cyclobutyl-amino)pyrrolo[2,3-d]-pyrimidin-7-yl]-3,4-dihydroxy-tetrahydro-furan-2-yl]methoxy-methylphosphonic acid]",< 10 nM,< 10 nM
